Experimental data from patent US20150258108A1 (priority 2014, published 2015).
Where “and” joins values, the source holds several entries; their conditions need not be identical. Identical values can stand only once. Like-named read-outs stand apart in the source and are kept apart here.

Key:
[1] = Pupillometry and cold pressor test in healthy volunteers; assay type: in vivo, human; conditions: 3-60 mg single oral dose
Method: Pulse oximetry and capnography data were collected continuously using a GE Carescape B650 monitoring system from 2 hours prior to dosing and until six hours after dosing, and thereafter at 12, 24, 48 and 72 hours post-dosing. Additional oximetry data were collected at 120, 168 and 216 hours. Pupillary miosis was assessed by pupillometry. Dark-adapted pupil diameter was measured in triplicate using a Neuroptics PLR-200 pupillometer under standardized light intensity (<5 lux) pre-dose, and at 2, 4, 6, 12, 24, 48, 72, 96, 120, 168 and 216 hours post-dosing.
Summary statistics (means, standard deviations, and coefficients of variation) were determined for each dose group for safety laboratory test data, ECG and pharmacokinetic parameters, and pharmacodynamic variables. Categorical variables were analysed using counts and percentages. Dose-proportionality of AUC and Cmax was assessed using linear regression. The effect of dose on pharmacodynamic parameter values over time was assessed using two-factor analysis of variance (ANOVA). […]
Analgesic effect was assessed based on duration of hand immersion in ice water and on visual analog scale (VAS) pain scores upon hand removal from the water bath. […]

[2] = Time to resumption of OST and opiate withdrawal scales (COWS, SOWS, OOWS); assay type: in vivo, human; conditions: opioid-dependent patients
[3] = tested on: human OPRK (κ-opioid receptor); test: biochemical; assay type: binding; conditions: ΔpKi = pKi(OPRK)-pKi(OPRM)
[4] = molecular target: T1, human OPRK (κ-opioid receptor) (Homo sapiens, UniProt P41145); test: biochemical; assay type: binding; conditions: Ki, OPRK, [3H]-U69,593 binding; This work
T1 construct: purchased PerkinElmer Life Sciences (Boston, Mass.)

[5] = molecular target: T2, OPRK (Homo sapiens, UniProt P41145); test: Activation and inhibition bias quantification G-protein/Beta-arrestin2
Method: Coupling efficiency (e-coupling) values indicated the relationship between the apparent binding affinity Ki versus the apparent functional potency EC50 of a given agonist ligand and used the equation pKi-pEC50. […] For inhibitory ligands, e-signal was calculated using maximal level of inhibition (Imax) normalized from 0 (basal, buffer) to 1 (agonist without inhibitor). Bias-coupling (quantification of pathway bias) was evaluated by subtracting the EC50 or the Ke issued from the G-protein pathway assays by those issued from β-arrestin pathway assays for a given ligand and in a linear (nM) scale. Bias-efficacy in favor of the G-protein pathway was evaluated by dividing the functional activation and the functional inhibition maximum responses (e-signal) from the G-protein pathway by the beta-arrestin pathway assays for a given ligand.

[6] = molecular target: T2, OPRK; test: cell-based; set-up: host or cells: CHO-K1

T2 sequence (P41145 whole entry): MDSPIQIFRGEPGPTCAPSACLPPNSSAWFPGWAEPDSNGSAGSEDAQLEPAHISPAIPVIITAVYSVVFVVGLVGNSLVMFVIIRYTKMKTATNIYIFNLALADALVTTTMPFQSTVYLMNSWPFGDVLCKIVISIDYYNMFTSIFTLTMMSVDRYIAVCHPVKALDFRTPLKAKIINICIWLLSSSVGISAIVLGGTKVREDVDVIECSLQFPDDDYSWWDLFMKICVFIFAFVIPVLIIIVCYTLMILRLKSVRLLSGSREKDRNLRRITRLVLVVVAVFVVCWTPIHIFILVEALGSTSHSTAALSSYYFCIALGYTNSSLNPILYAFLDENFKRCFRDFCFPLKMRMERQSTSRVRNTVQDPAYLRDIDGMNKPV
T1 sequence (P41145 whole entry): as above

With `CC[C@H]1CC2C[C@H]3c4[nH]c5ccc(O)cc5c4CCN(C2)C13` [Noribogaine] the “analgesic effect in the cold pressor test” value ([1]; hand immersion duration and VAS pain scores) was “no analgesic effect”, the “pupillary constriction (pupillometry, dark-adapted pupil diameter)” value ([1]; vs placebo) was “no evidence of pupillary constriction” and the “withdrawal symptoms (COWS, OOWS, SOWS) over first six hours” value ([2]; 120 mg) was “generally experienced fewer withdrawal symptoms than the other patients”. For the same compound, the “average time to resumption of opioids (OST)” value ([2]; single 120 mg dose) was “greater than 20 hours”, the “Specificity ΔpKi” value [3] was 0.4 and 0.3 and the Ki [4] was 720 nM and 700 nM. For the same compound, the “Bias G-protein/Beta-arrestin2: Bias-coupling” value ([5]; Activation) was 32, the “Bias G-protein/Beta-arrestin2: Bias-efficacy” value ([5]; Activation) was 0.59 and the “Bias G-protein/Beta-arrestin2: Bias-efficacy” value ([5]; Inhibition) was −0.35. For the same compound, the “Bias G-protein/Beta-arrestin2: Bias-coupling” value ([5]; Inhibition (fold more potent at inhibiting Dynorphin A-induced β-arrestin-2 recruitment than G-protein activation)) was 144, the EC50 [6] was ~265 nM and the IC50 [6] was 1450 ± 1100 nM. The Kb [6] was 251 nM, the “Beta-Arrestin2 Pathway e-coupling” value ([6]; OPRK, Activation) was −0.43 and the “Beta-Arrestin2 Pathway e-signal” value ([6]; OPRK, Activation) was 0.13. The “inhibition of agonist response (up to)” value ([6]; OPRK, Dynorphin A at EC80) was ~60%, the IC50 ([6]; OPRK, Dynorphin A at EC80 (370 nM Dyn-A)) was 1450 nM and the “Beta-Arrestin2 Pathway e-coupling” value ([6]; OPRK, Inhibition) was −0.44. For the same compound, the “Beta-Arrestin2 Pathway e-signal” value ([6]; OPRK, Inhibition) was 0.60, the “Efficacy (Emax)” value ([6]; OPRK, activation, % of dynorphin A maximal stimulation) was 12% and 12.6% and the e-coupling ([6]; OPRK, activation, pKi-pEC50) was −0.43. The Ke ([6]; OPRK, inhibition of Dynorphin A at EC80) was 262 nM and the e-coupling ([6]; OPRK, inhibitory component, pKi-pKe) was −0.44.
